Measured values as given in patent US8592415B2, “Selective kinase inhibitors” (Reaction Biology Corp., priority 2009, dated 2013).

What was measured:
Format in all cases: biochemical
JAK3 = JAK3 (Homo sapiens (Human), UniProt P52333); assay: In vitro JAK kinase enzymatic assay (JAK3)
Procedure: (§1) The JAK3 kinase is recombinant human protein (catalytic domain, amino acids 781-1124 with GST-tag), expressed in insect cells (Invitrogen Catalog PV3855). The substrate is poly-glutamic acid-tyrosin peptide, Poly-(GT) (4:1) (Sigma-Aldrich, catalog P7244). [γ-^33P]-ATP is purchased from Perkin Elmer (catalog NEG602H001MC) (EasyTides). Kinase reaction buffer is 100 mM HEPES (pH 7.5), 20 mM MgCl2, 2 mM EGTA, 0.02% Brij 35. The JAK1 (Invitrogen Catalog PV4774), JAK2 (Invitrogen Catalog PV4210) and TYK2 Invitrogen Catalog PV4790) enzymatic assays are performed in the similar way. JAK1 and JAK2 substrate is Poly-(GT) (4:1), but TYK2 substrate is peptide with sequences of […]. The reaction is carried for 2 hours at room temperature. After the reactions are finished or stopped, portion or all the reaction mixtures are transferred onto filter paper P81 Phosphocellulose paper (Whatman catalog 3698-915) for binding the final radioisotope labeled products. The unreacted phosphate are washed away without interfering with the detection of real phosphorylated products. The final product can be detected by instruments such as scintillation counter, top counter or phosphoimager. The enzymatic assays can also performed in assays described those described in the art [e.g., Ma H et al, Expert Opin. Drug Discov. 3, 607-621 (2008); Olive D M, Expert Rev Proteomics, 1, 327-341 (2004)].
(§2) Signal=Bottom+(Top−Bottom)/(1+10^((Log(IC50)−Log [I])*Hill Slope) Bottom and Top refer to the post and pre-transition baselines, respectively.

JAK2 [1] = assay: In vitro JAK kinase enzymatic assay (JAK2)
Procedure: as §1, with “The” for “The JAK3 kinase is recombinant human protein (catalytic domain, amino acids 781-1124 with GST-tag), expressed in insect cells (Invitrogen Catalog PV3855). The”, “After the reactions are finished or stopped, portion or all the reaction mixtures are transferred onto filter paper P81 Phosphocellulose paper (Whatman catalog 3698-915) for binding the final radioisotope labeled products.” left out, “Discov.” for “Discov. 3, 607-621 (2008); Olive D M, Expert Rev Proteomics, 1, 327-341 (2004)].”
as §2

JAK1 = JAK1 (Homo sapiens, UniProt P23458); assay: In vitro JAK kinase enzymatic assay (JAK1)
Procedure: as §1, §2

TYK2 = TYK2 (Homo sapiens (Human), UniProt P29597); assay: In vitro JAK kinase enzymatic assay (TYK2)
TYK2, sequence (P29597 whole entry): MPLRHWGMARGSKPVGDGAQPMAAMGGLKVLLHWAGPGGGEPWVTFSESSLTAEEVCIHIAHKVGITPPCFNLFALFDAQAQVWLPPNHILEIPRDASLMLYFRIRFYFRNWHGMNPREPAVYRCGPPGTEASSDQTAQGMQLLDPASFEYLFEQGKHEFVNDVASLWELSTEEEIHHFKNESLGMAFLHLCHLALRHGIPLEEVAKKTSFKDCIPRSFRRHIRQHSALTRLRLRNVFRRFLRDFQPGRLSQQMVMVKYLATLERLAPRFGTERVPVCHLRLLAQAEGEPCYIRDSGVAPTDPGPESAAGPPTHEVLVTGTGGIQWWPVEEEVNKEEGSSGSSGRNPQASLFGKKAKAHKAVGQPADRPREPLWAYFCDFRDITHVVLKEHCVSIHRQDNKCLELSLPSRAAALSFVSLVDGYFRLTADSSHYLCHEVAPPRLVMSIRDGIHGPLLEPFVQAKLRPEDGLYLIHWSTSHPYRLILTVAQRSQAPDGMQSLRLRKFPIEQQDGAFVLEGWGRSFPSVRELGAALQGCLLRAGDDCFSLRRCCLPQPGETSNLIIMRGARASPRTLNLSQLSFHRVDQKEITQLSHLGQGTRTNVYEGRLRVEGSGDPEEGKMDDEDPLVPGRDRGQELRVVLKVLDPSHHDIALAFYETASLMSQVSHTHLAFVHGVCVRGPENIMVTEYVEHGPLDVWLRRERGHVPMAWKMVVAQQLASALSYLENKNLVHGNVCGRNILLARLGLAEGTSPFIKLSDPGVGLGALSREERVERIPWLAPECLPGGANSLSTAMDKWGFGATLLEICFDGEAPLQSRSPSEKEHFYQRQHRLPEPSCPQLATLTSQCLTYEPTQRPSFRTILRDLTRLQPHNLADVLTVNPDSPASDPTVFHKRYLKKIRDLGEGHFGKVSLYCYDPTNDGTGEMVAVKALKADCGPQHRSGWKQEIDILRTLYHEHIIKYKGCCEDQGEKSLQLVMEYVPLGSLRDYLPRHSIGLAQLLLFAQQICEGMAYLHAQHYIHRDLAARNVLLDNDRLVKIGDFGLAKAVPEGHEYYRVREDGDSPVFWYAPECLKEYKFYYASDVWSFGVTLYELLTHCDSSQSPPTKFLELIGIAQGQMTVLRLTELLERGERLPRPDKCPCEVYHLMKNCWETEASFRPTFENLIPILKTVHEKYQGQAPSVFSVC
Procedure: as §1, §2

JAK2 [2] = target: JAK2 (Homo sapiens, UniProt O60674); assay: In vitro JAK kinase enzymatic assay (JAK2)
JAK2 (Homo sapiens, UniProt O60674), sequence (O60674 whole entry, looked up, the tested form may be a part): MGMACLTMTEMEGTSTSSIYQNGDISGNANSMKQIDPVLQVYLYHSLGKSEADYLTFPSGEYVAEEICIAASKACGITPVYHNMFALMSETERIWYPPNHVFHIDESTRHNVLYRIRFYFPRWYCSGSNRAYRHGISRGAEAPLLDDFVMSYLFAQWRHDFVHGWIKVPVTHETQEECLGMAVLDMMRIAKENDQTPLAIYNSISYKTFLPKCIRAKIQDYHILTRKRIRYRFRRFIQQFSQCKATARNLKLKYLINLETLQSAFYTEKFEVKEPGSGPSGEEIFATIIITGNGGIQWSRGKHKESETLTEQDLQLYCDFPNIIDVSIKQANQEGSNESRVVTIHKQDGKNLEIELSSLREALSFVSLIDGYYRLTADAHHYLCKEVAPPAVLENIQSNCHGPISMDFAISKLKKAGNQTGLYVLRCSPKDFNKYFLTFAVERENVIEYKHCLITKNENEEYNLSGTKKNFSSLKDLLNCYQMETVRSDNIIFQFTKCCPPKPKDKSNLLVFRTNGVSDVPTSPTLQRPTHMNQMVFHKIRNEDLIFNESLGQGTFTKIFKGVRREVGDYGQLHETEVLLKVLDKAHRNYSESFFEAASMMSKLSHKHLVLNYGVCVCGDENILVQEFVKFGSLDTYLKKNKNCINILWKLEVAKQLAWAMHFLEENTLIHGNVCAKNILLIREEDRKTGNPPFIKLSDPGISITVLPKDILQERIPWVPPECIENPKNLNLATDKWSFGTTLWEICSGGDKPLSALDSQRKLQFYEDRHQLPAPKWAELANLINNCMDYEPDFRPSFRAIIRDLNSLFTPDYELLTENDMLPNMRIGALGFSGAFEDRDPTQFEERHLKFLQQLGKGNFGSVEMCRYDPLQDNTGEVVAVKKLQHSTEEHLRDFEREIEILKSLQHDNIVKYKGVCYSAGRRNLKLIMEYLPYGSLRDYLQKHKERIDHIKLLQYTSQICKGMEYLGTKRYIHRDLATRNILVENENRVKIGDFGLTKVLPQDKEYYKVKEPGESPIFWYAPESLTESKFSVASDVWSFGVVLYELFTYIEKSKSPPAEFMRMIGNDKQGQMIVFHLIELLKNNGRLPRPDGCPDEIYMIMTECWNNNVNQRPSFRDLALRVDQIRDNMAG
Procedure: as §1, with “The” for “The JAK3 kinase is recombinant human protein (catalytic domain, amino acids 781-1124 with GST-tag), expressed in insect cells (Invitrogen Catalog PV3855). The”, “After the reactions are finished or stopped, portion or all the reaction mixtures are transferred onto filter paper P81 Phosphocellulose paper (Whatman catalog 3698-915) for binding the final radioisotope labeled products.” left out, “Discov.” for “Discov. 3, 607-621 (2008); Olive D M, Expert Rev Proteomics, 1, 327-341 (2004)].”
as §2

JAK3, sequence (P52333 781-1124): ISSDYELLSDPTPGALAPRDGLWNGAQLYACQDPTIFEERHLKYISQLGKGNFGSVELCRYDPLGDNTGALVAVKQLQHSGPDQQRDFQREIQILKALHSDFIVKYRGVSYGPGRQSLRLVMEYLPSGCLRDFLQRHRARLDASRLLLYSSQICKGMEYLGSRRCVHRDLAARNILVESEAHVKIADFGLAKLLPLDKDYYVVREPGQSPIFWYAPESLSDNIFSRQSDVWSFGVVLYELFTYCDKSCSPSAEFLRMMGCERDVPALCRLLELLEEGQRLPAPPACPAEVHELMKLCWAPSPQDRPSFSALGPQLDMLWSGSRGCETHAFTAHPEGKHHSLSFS

Compound	IC50 (JAK3)	IC50 (JAK2 [1])	IC50 (JAK1)	IC50 (TYK2)	IC50 (JAK2 [2])
O=C(CC(=O)C(F)(F)F)Nc1cccc(-c2cnc3ccccc3n2)c1 [Example 26, 4,4,4-trifluoro-3-oxo-N-(3-(quinoxalin-2-yl)phenyl)butanamide]	> 10 µM	> 10 µM	> 10 µM	> 10 µM	
2-[4-(4-chlorophenyl)piperazin-1-yl]-N-(3-(quinoxalin-2-yl)phenyl)acetamide [Example 4]	2.7 µM		> 20 µM	> 20 µM	> 20 µM
CS(=O)(=O)OCC(=O)Nc1cccc(-c2cnc3ccccc3n2)c1 [Example 27, 2-oxo-2-(3-(quinoxalin-2-yl)phenylamino)ethyl methanesulfonate]	0.0006 µM	> 10 µM	> 10 µM	> 10 µM	
CCOC(=O)CC(=O)Nc1cccc(-c2cnc3ccccc3n2)c1 [Example 32, ethyl 3-oxo-3-(3-(quinoxalin-2-yl)phenylamino)propanoate]	> 10 µM	> 10 µM	> 10 µM	> 10 µM	
O=C(CN1CCN(c2ccncc2)CC1)Nc1cccc(-c2cnc3ccccc3n2)c1 [Example 33, 2-(4-(pyridin-4-yl)piperazin-1-yl)-N-(3-(quinoxalin-2-yl)phenyl)acetamide]	> 10 µM	> 10 µM	> 10 µM	> 10 µM	
O=C(CCCCl)Nc1cccc(-c2cnc3ccccc3n2)c1 [Example 5, 4-chloro-N-[3-(quinoxalin-2-yl)phenyl]butanamide]	> 50 µM	> 50 µM	> 50 µM	> 50 µM	
CC(Cl)C(=O)Nc1cccc(-c2cnc3ccccc3n2)c1 (centres unmarked) [Example 21, 2-chloro-N-(3-(quinoxalin-2-yl)phenyl)propanamide]	0.33 µM		> 50 µM	> 50 µM	> 50 µM
CC(Nc1cccc(-c2cnc3ccccc3n2)c1)=C1CCOC1=O (racemic) [Example 31, (E/Z)-3-(1-(3-(quinoxalin-2-yl)phenylamino)ethylidene)dihydrofuran-2(3H)-one]	> 10 µM		> 10 µM	> 10 µM	
CN(C)CC(=O)Nc1cccc(-c2cnc3ccccc3n2)c1 [Example 2, N^2,N^2-dimethyl-N^1-(3-quinoxalin-2-ylphenyl)glycinamide]	> 50 µM	> 50 µM	> 50 µM	> 50 µM	
O=C(CN1CCCC1)Nc1cccc(-c2cnc3ccccc3n2)c1 [Example 3, 2-pyrrolidin-1-yl-N-(3-quinoxalin-2-ylphenyl)acetamide]	> 20 µM	> 20 µM	> 20 µM	> 20 µM	
CS(=O)(=O)Nc1cccc(-c2cnc3ccccc3n2)c1 [Example 15, N-[3-(quinoxalin-2-yl)phenyl]methanesulfonamide]	> 50 µM	18.5 µM	> 50 µM	> 50 µM	
O=C(Nc1cccc(-c2cnc3ccccc3n2)c1)C(Cl)Cl [Example 18, 2,2-dichloro-N-[3-(quinoxalin-2-yl)phenyl]acetamide]	0.5 µM		> 10 µM	> 10 µM	> 10 µM
O=C(CN1CCOCC1)Nc1cccc(-c2cnc3ccccc3n2)c1 [Example 20, 2-morpholino-N-(3-(quinoxalin-2-yl)phenyl)acetamide]	34 µM	> 50 µM	> 50 µM	> 50 µM	
O=C(Cn1cncn1)Nc1cccc(-c2cnc3ccccc3n2)c1 [Example 7, N-[3-(quinoxalin-2-yl)phenyl]-2-(1H-1,2,4-triazol-1-yl)acetamide]	> 50 µM	> 50 µM	> 50 µM	> 50 µM	
CN1CCN(CC(=O)Nc2cccc(-c3cnc4ccccc4n3)c2)CC1 [Example 17, 2-(4-methylpiperazin-1-yl)-N-[3-(quinoxalin-2-yl)phenyl]acetamide]	> 50 µM	> 50 µM	> 50 µM	> 50 µM	
N-[3-(quinoxalin-2-yl)phenyl]cyclopropanecarboxamide [Example 14]	> 50 µM		> 50 µM	> 50 µM	

Compound	IC50 (JAK3)	IC50 (JAK2 [1])	IC50 (JAK1)	IC50 (TYK2)	IC50 (JAK2 [2])
O=C(Nc1cccc(-c2cnc3ccccc3n2)c1)c1ccco1 [Example 12, N-[3-(quinoxalin-2-yl)phenyl]furan-2-carboxamide]	> 50 µM	24.6 µM	> 50 µM	> 50 µM	
O=C(CO)Nc1cccc(-c2cnc3ccccc3n2)c1 [Example 29, 2-hydroxy-N-(3-(quinoxalin-2-yl)phenyl)acetamide]	> 10 µM		> 10 µM	> 10 µM	> 10 µM
CC(=O)OCC(=O)Nc1cccc(-c2cnc3ccccc3n2)c1 [Example 28, 2-oxo-2-(3-(quinoxalin-2-yl)phenylamino)ethyl acetate]	150 µM	> 10 µM	> 10 µM	> 10 µM	
CC(=O)SCC(=O)Nc1cccc(-c2cnc3ccccc3n2)c1 [Example 30, S-2-oxo-2-(3-(quinoxalin-2-yl)phenylamino)ethyl ethanethioate]	> 10 µM	> 10 µM	> 10 µM	> 10 µM	
O=C(CCCl)Nc1cccc(-c2cnc3ccccc3n2)c1 [Example 19, 3-chloro-N-[3-(quinoxalin-2-yl)phenyl]propanamide]	> 50 µM		> 50 µM	> 50 µM	> 50 µM
O=C(CN1CCNCC1)Nc1cccc(-c2cnc3ccccc3n2)c1 [Example 35, 2-(piperazin-1-yl)-N-(3-(quinoxalin-2-yl)phenyl)acetamide]	13 µM	> 20 µM	> 20 µM	> 20 µM	
COc1ccc(NC(=O)Nc2cccc(-c3cnc4ccccc4n3)c2)cc1 [Example 10, 1-(4-methoxyphenyl)-3-[3-(quinoxalin-2-yl)phenyl]urea]	> 50 µM	> 50 µM	> 50 µM	> 50 µM	
O=S(=O)(Nc1cccc(-c2cnc3ccccc3n2)c1)c1cccs1 [Example 13, N-[3-(quinoxalin-2-yl)phenyl]thiophene-2-sulfonamide]	> 50 µM		> 50 µM	> 50 µM	55.5 µM
1-methyl-3-[3-(quinoxalin-2-yl)phenyl]thiourea [Example 11]	> 50 µM		> 50 µM	> 50 µM	25.5 µM
NS(=O)(=O)CCC(=O)Nc1cccc(-c2cnc3ccccc3n2)c1 [Example 36, 3-(aminosulfonyl)-N-[3-(2-quinoxalinyl)phenyl]propanamide]	> 10 µM	> 10 µM	> 10 µM	> 10 µM	
C=CCC(=O)Nc1cccc(-c2cnc3ccccc3n2)c1 [Example 23, N-(3-(quinoxalin-2-yl)phenyl)but-3-enamide]	> 10 µM	> 10 µM	> 10 µM	> 10 µM	
CCC(=O)Nc1cccc(-c2cnc3ccccc3n2)c1 [Example 6, N-[3-(quinoxalin-2-yl)phenyl]propionamide]	> 50 µM		> 50 µM	> 50 µM	> 50 µM
C=CC(=O)Nc1cccc(-c2cnc3ccccc3n2)c1 [Example 22, N-(3-(quinoxalin-2-yl)phenyl)acrylamide]	0.045 µM		> 10 µM	> 10 µM	> 10 µM
O=C(CN1CCC(O)CC1)Nc1cccc(-c2cnc3ccccc3n2)c1 [Example 34, 2-(4-hydroxypiperidin-1-yl)-N-(3-(quinoxalin-2-yl)phenyl)acetamide]	> 10 µM		> 10 µM	> 10 µM	> 10 µM
CSCC(=O)Nc1cccc(-c2cnc3ccccc3n2)c1 [Example 25, 2-(methylthio)-N-(3-(quinoxalin-2-yl)phenyl)acetamide]	> 10 µM	> 10 µM	> 10 µM	> 10 µM	
